Data reported in patent publication EP0624315B1, “Diaryl(pyridinio and isoquinolinio) boron fungicidal agents” (AMERICAN CYANAMID COMPANY, priority 1993, dated 1994).

Tests used:
Plasmopara viticola = test: In vivo fungicidal evaluation, Grape Downy Mildew; conditions: 200 ppm, host plants sprayed, dried, then inoculated; note: ranges in brackets are in %
[1] = tested on: Erysiphe graminis f. sp. tritici; test: In vivo fungicidal evaluation, Wheat Powdery Mildew; conditions: 200 ppm, host plants sprayed, dried, then inoculated; note: ranges in brackets are in %
Pyricularia oryzae = assay type: in vivo; conditions: 200 ppm, host plants sprayed, dried, then inoculated
[2] = tested on: Rhizoctonia solani (Rhizso); test: In vitro fungicidal evaluation, mycelial growth inhibition in nutrient broth; assay type: cell-based; conditions: 25 ppm, 3-4 days at 21°C, rated visually; note: ranges in brackets are in %
Experimental: (§1) Test compounds are dissolved or suspended in acetone and dispersed into cell well plates containing a suspension of ground fungal mycelia in a nutrient broth. Assay plates are incubated for 3-4 days at 21°C. Growth inhibition is measured visually and is rated using the following scale:
(§2) Untreated controls, solvent blanks and reference standards are included in each test.
(§3) Assay fungi include the plant pathogens, Pythium ultimum (Pythul); Rhizoctonia solani (Rhizso); Fusarium oxysporum f. sp. cucumerinum (Fusoxc); and Pseudocercosporella herpotrichoides (Psdche).
(§4) When more than one test is run, the data are averaged. The compouds evaluated are reported by compound number given in Example 5.

[3] = tested on: Pseudocercosporella herpotrichoides (Psdche); test: as above; assay type: cell-based; conditions: 25 ppm, 3-4 days at 21°C, rated visually; note: ranges in brackets are in %
Experimental: as §1, §2, §3, §4

Pythium ultimum (Pythul) = test: as above; assay type: cell-based; conditions: 25 ppm, 3-4 days at 21°C, rated visually; note: ranges in brackets are in %
Experimental: as §1, §2, §3, §4

[4] = tested on: Fusarium oxysporum f. sp. cucumerinum (Fusoxc); test: as above; assay type: cell-based; conditions: 25 ppm, 3-4 days at 21°C, rated visually; note: ranges in brackets are in %
Experimental: as §1, §2, §3, §4

Botrytis cinerea = test: In vivo fungicidal evaluation, Pepper Botrytis; conditions: 200 ppm, host plants sprayed, dried, then inoculated; note: ranges in brackets are in %
Alternaria solani = test: In vivo fungicidal evaluation, Tomato Early Blight; conditions: 200 ppm, host plants sprayed, dried, then inoculated; note: ranges in brackets are in %
Venturia inaequalis = test: In vivo fungicidal evaluation, Apple Scab; conditions: 200 ppm, host plants sprayed, dried, then inoculated; note: ranges in brackets are in %
Cercospora beticola = test: In vivo fungicidal evaluation, Sugar Beet Cercospora; conditions: 200 ppm, host plants sprayed, dried, then inoculated; note: ranges in brackets are in %
[5] = tested on: Puccinia recondita f. sp. tritici; test: In vivo fungicidal evaluation, Wheat Leaf Rust; conditions: 200 ppm, host plants sprayed, dried, then inoculated; note: ranges in brackets are in %

Compound	GDM (Grape Downy Mildew) disease control rating (Plasmopara viticola)	WPM (Wheat Powdery Mildew) disease control rating [1]	RB (Rice Blast) disease control rating (Pyricularia oryzae)	RHIZSO growth inhibition rating [2]	PSDCHE growth inhibition rating [3]	PHTHUL growth inhibition rating (Pythium ultimum (Pythul))	FUSOXC growth inhibition rating [4]	PB (Pepper Botrytis) disease control rating (Botrytis cinerea)	TEB (Tomato Early Blight) disease control rating (Alternaria solani)	AS (Apple Scab) disease control rating (Venturia inaequalis)	SBC (Sugar Beet Cercospora) disease control rating (Cercospora beticola)	WLR (Wheat Leaf Rust) disease control rating [5]
C[B-](c1ccccc1)(c1ccccc1)[n+]1ccc(-c2ccccc2)cc1 [Compound 17, (4-Phenylpyridinio)methyldiphenylboron]	9 (100)	8 (96 - 99)	8 (96 - 99)	5 (60 - 89)	7 (90 - 99)	0 (0)	7 (90 - 99)	9 (100)	9 (100)	9 (100)	8 (96 - 99)	–
Butoxy(3-methylpyridinio)diphenylboron [Compound 10]	3 (30 - 44)	0 (0)	0 (0)	9 (100)	7 (90 - 99)	9 (100)	9 (100)	6 (75 - 89)	0 (0)	0 (0)	0 (0)	0 (0)
Butoxy(4-methylpyridinio)diphenylboron [Compound 9]	0 (0)	0 (0)	0 (0)	0 (0)	0 (0)	9 (100)	9 (100)	6 (75 - 89)	0 (0)	0 (0)	0 (0)	0 (0)
(3-Butylpyridinio)methyldiphenylboron [Compound 3]	9 (100)	8 (96 - 99)	0 (0)	9 (100)	9 (100)	9 (100)	9 (100)	6 (75 - 89)	8 (96 - 99)	9 (100)	0 (0)	8 (96 - 99)
C[B-](c1ccccc1)(c1ccccc1)[n+]1ccc(C(C)(C)C)cc1 [Compound 20, (4-Tert-butyl-pyridinio)methyldiphenylboron]	9 (100)	7 (90 - 95)	8 (96 - 99)	7 (90 - 99)	7 (90 - 99)	7 (90 - 99)	7 (90 - 99)	9 (100)	8 (96 - 99)	9 (100)	9 (100)	–
Hydroxy(3-butylpyridinio)diphenylboron [Compound 7]	0 (0)	5 (60 - 74)	6 (75 - 89)	9 (100)	0 (0)	9 (100)	9 (100)	0 (0)	0 (0)	6 (75 - 89)	0 (0)	5 (60 - 74)
Bis(p-fluorophenyl)(isoquinolinio)methylboron [Compound 13]	9 (100)	8 (96 - 99)	7 (90 - 95)	9 (100)	9 (100)	9 (100)	9 (100)	9 (100)	8 (96 - 99)	7 (90 - 95)	8 (96 - 99)	7 (90 - 95)
Hydroxy(4-isopropylpyridinio)diphenylboron [Compound 8]	4 (45 - 59)	0 (0)	6 (75 - 89)	7 (90 - 99)	0 (0)	9 (100)	9 (100)	0 (0)	0 (0)	0 (0)	0 (0)	0 (0)
(5,6,7,8-Tetrahydroisoquinolinio)methyldiphenylboron [Compound 4]	9 (100)	8 (96 - 99)	0 (0)	9 (100)	9 (100)	7 (90 - 99)	9 (100)	9 (100)	6 (75 - 89)	9 (100)	8 (96 - 99)	9 (100)
CC(=O)c1cc[n+]([B-](C)(c2ccccc2)c2ccccc2)cc1 [Compound 19, (4-Acetylpyridinio)methyldiphenylboron]	9 (100)	8 (96 - 99)	8 (96 - 99)	7 (90 - 99)	9 (100)	7 (90 - 99)	7 (90 - 99)	9 (100)	8 (96 - 99)	9 (100)	9 (100)	–
(4-Cyanopyridinio)methyldiphenylboron [Compound 16]	9 (100)	0 (0)	9 (100)	7 (90 - 99)	9 (100)	7 (90 - 99)	7 (90 - 99)	8 (96 - 99)	8 (96 - 99)	9 (100)	8 (96 - 99)	–
